Test results taken from patent publication US11708318B2, “Polymorphic forms of RAD1901-2HCL” (Radius Pharmaceuticals, Inc., priority 2017, dated 2023).
“Also recorded” adds a separate entry of the source. Read-outs that look alike come from different tables or passages of the source.

Assay: Solubility assessment of Sample 1 (majorly Form 1) in 24 solvent systems
Assay type: physicochemical
Conditions: for solubility: thermodynamic from solid
Experimental: Solubility assessment was carried out on the Sample 1 of RAD1901-2HCl (majorly Form 1 shown by XRPD) in 24 solvent systems in HPLC vials (sample IDs: A1 to A24). RAD1901-2HCl (25 mg) was treated with increasing volumes of solvent until the material fully dissolved or until a maximum of 60 vol had been used (Table 13).
After each addition of solvent, the system was stirred for 5 to 10 minutes at 25° C., then shaken at 50° C. for 5 to 10 minutes, and observations made. Samples were allowed to stand at room temperature for 5 min before the addition of a new aliquot of solvent. After the assessment was completed, the suspensions obtained were matured (maturation) and the clear solutions were cooled (cooling) and slowly evaporated (evaporation) as described below. All solids recovered from maturation, cooling and evaporation experiments were analyzed by high resolution XRPD.

In the case of `CCNCCc1ccc(CN(CC)c2cc(OC)ccc2[C@@H]2CCc3cc(O)ccc3C2)cc1.Cl.Cl` [Sample 1], the solubility (acetonitrile, 50 °C, organic solvent or mixture, Acetonitrile, sample ID A19, read-out: Solubility assessment 40 vol.) is reported as < 25 mg/mL, the solubility (acetonitrile, 50 °C, organic solvent or mixture, Acetonitrile, sample ID A19, read-out: Solubility assessment 60 vol.) is reported as < 16.7 mg/mL and the solubility (dichloromethane, 50 °C, organic solvent or mixture, Dichloromethane, sample ID A18, read-out: Solubility assessment 10 vol.) is reported as < 100 mg/mL. The solubility (dichloromethane, 50 °C, organic solvent or mixture, Dichloromethane, sample ID A18, read-out: Solubility assessment 20 vol.) was < 50 mg/mL, the solubility (dichloromethane, 50 °C, organic solvent or mixture, Dichloromethane, sample ID A18, read-out: Solubility assessment 40 vol.) was < 25 mg/mL and the solubility (dichloromethane, organic solvent or mixture, Dichloromethane, sample ID A18, read-out: Solubility assessment 60 vol.) was < 16.7 mg/mL. For the same compound, the solubility (dimethyl sulfoxide, 50 °C, organic solvent or mixture, Dimethyl sulfoxide, sample ID A11, read-out: Solubility assessment 10 vol.) was > 100 mg/mL, the solubility (ethanol, 50 °C, organic solvent or mixture, Ethanol, sample ID A10, read-out: Solubility assessment 10 vol.) was < 100 mg/mL and the solubility (ethanol, 50 °C, organic solvent or mixture, Ethanol, sample ID A10, read-out: Solubility assessment 20 vol.) was < 50 mg/mL. For the same compound, the solubility (ethanol, 50 °C, organic solvent or mixture, Ethanol, sample ID A10, read-out: Solubility assessment 40 vol.) was < 25 mg/mL, the solubility (ethanol, organic solvent or mixture, Ethanol, sample ID A10, read-out: Solubility assessment 60 vol.) was < 16.7 mg/mL and the solubility (ethyl acetate, 50 °C, organic solvent or mixture, Ethyl acetate, sample ID A3, read-out: Solubility assessment 10 vol.) was < 100 mg/mL. For the same compound, the solubility (ethyl acetate, 50 °C, organic solvent or mixture, Ethyl acetate, sample ID A3, read-out: Solubility assessment 20 vol.) was < 50 mg/mL, the solubility (ethyl acetate, 50 °C, organic solvent or mixture, Ethyl acetate, sample ID A3, read-out: Solubility assessment 40 vol.) was < 25 mg/mL and the solubility (ethyl acetate, organic solvent or mixture, Ethyl acetate, sample ID A3, read-out: Solubility assessment 60 vol.) was < 16.7 mg/mL. The solubility (isopropyl acetate, 50 °C, organic solvent or mixture, Isopropyl acetate, sample ID A4, read-out: Solubility assessment 10 vol.) was < 100 mg/mL, the solubility (isopropyl acetate, 50 °C, organic solvent or mixture, Isopropyl acetate, sample ID A4, read-out: Solubility assessment 20 vol.) was < 50 mg/mL and the solubility (isopropyl acetate, 50 °C, organic solvent or mixture, Isopropyl acetate, sample ID A4, read-out: Solubility assessment 40 vol.) was < 25 mg/mL. For the same compound, the solubility (isopropyl acetate, organic solvent or mixture, Isopropyl acetate, sample ID A4, read-out: Solubility assessment 60 vol.) was < 16.7 mg/mL, the solubility (methanol, 50 °C, organic solvent or mixture, Methanol, sample ID A20, read-out: Solubility assessment 10 vol.) was 50 to 100 mg/mL and the solubility (methanol, 50 °C, organic solvent or mixture, Methanol, sample ID A20, read-out: Solubility assessment 20 vol.) was 50 to 100 mg/mL. For the same compound, the solubility (n-heptane, 50 °C, organic solvent or mixture, n-Heptane, sample ID A1, read-out: Solubility assessment 10 vol.) was < 100 mg/mL, the solubility (n-heptane, 50 °C, organic solvent or mixture, n-Heptane, sample ID A1, read-out: Solubility assessment 20 vol.) was < 50 mg/mL and the solubility (n-heptane, 50 °C, organic solvent or mixture, n-Heptane, sample ID A1, read-out: Solubility assessment 40 vol.) was < 25 mg/mL. The solubility (n-heptane, organic solvent or mixture, n-Heptane, sample ID A1, read-out: Solubility assessment 60 vol.) was < 16.7 mg/mL, the solubility (nitromethane, 50 °C, organic solvent or mixture, Nitromethane, sample ID A21, read-out: Solubility assessment 10 vol.) was < 100 mg/mL and the solubility (nitromethane, 50 °C, organic solvent or mixture, Nitromethane, sample ID A21, read-out: Solubility assessment 20 vol.) was < 50 mg/mL. For the same compound, the solubility (nitromethane, 50 °C, organic solvent or mixture, Nitromethane, sample ID A21, read-out: Solubility assessment 40 vol.) was < 25 mg/mL, the solubility (nitromethane, organic solvent or mixture, Nitromethane, sample ID A21, read-out: Solubility assessment 60 vol.) was < 16.7 mg/mL and the solubility (propyl acetate, 50 °C, organic solvent or mixture, Propyl acetate, sample ID A2, read-out: Solubility assessment 10 vol.) was < 100 mg/mL. The solubility (propyl acetate, 50 °C, organic solvent or mixture, Propyl acetate, sample ID A2, read-out: Solubility assessment 20 vol.) was < 50 mg/mL, the solubility (propyl acetate, 50 °C, organic solvent or mixture, Propyl acetate, sample ID A2, read-out: Solubility assessment 40 vol.) was < 25 mg/mL and the solubility (propyl acetate, organic solvent or mixture, Propyl acetate, sample ID A2, read-out: Solubility assessment 60 vol.) was < 16.7 mg/mL. For the same compound, the solubility (tetrahydrofuran, 50 °C, organic solvent or mixture, Tetrahydrofuran, sample ID A17, read-out: Solubility assessment 10 vol.) was < 100 mg/mL, the solubility (tetrahydrofuran, 50 °C, organic solvent or mixture, Tetrahydrofuran, sample ID A17, read-out: Solubility assessment 20 vol.) was < 50 mg/mL and the solubility (tetrahydrofuran, 50 °C, organic solvent or mixture, Tetrahydrofuran, sample ID A17, read-out: Solubility assessment 40 vol.) was < 25 mg/mL. For the same compound, the solubility (tetrahydrofuran, organic solvent or mixture, Tetrahydrofuran, sample ID A17, read-out: Solubility assessment 60 vol.) was < 16.7 mg/mL, the solubility (toluene, 50 °C, organic solvent or mixture, Toluene, sample ID A15, read-out: Solubility assessment 10 vol.) was < 100 mg/mL and the solubility (toluene, 50 °C, organic solvent or mixture, Toluene, sample ID A15, read-out: Solubility assessment 20 vol.) was < 50 mg/mL. For the same compound, the solubility (toluene, 50 °C, organic solvent or mixture, Toluene, sample ID A15, read-out: Solubility assessment 40 vol.) was < 25 mg/mL, the solubility (toluene, organic solvent or mixture, Toluene, sample ID A15, read-out: Solubility assessment 60 vol.) was < 16.7 mg/mL and the Solubility in water (water) was “highly soluble; also recorded: high solubility”. For the same compound, the solubility (water, 50 °C, water, Water, sample ID A12, read-out: Solubility assessment 10 vol.) was 50 to 100 mg/mL and the solubility (water, 50 °C, water, Water, sample ID A12, read-out: Solubility assessment 20 vol.) was 50 to 100 mg/mL.
